How the values were obtained:
[1] = test system: multi-resistant Staphylococcus aureus 596 (MRSA-596); experiment: Paper diffusion method drug sensitivity test, MRSA-596; format: cell-based; details: for Zone of inhibition: MRSA-596, 30 μg/tablet paper disc 6.35 mm, LB plate, 37° C., 24 h, ≥17 mm sensitive, 15-16 mm intermediary, ≤14 mm drug resistance
Experimental: (§1) The antimicrobial efficacy was determined by a paper diffusion method drug sensitivity test.
(§2) E Experimental strains: multi-resistant Staphylococcus aureus 206 (MRSA-206), multi-resistant Staphylococcus aureus 575 (MRSA-575), multi-resistant Staphylococcus aureus 596 (MRSA-596). The experimental strain was identified by Huashan Hospital Affiliated to Fudan University (Institute of Antibiotic of Fudan University).
(§3) Drug sensitive paper: The drug sensitive paper was a special drug sensitive paper with a diameter of 6.35 mm and a water absorption of 0.02 mL. The control drug was vancomycin (30 μg/tablet); the test drugs were pleuromulin (30 μg/tablet), salicylic acid (30 μg/tablet) and pleuromulin salicylic acid ester (30 μg/tablet).
(§4) Reagents: LB agar medium, LA broth medium, 0.5% DMSO solution.
(§5) T The experimental strains were inoculated in non-selective medium and placed in air at 37° C. for 24 h. A single colony that grows well and inoculate it into broth medium was incubate at 35° C.±2° C. for 6 hours, and LA broth medium was used to calibrate the concentration of the bacterial solution to 0.5 Mie turbidimetric tube (1.5×10^8 CFU/mL). A bacterial suspension was obtained.
(§6) LB dry powder was weighed, sterilized at 103.4 Kpa, 121.3° C. high-pressure steam for 15 min, and then placed it in a 40° C.-50° C. water bath. A sterile empty plate (inner diameter 9 cm) was placed on the surface of the ultra-clean table water table, and […] to the plate. The thickness of each plate was 3 mm to 4 mm. After the plate was cooled at room temperature, it was stored in the refrigerator at 2° C.-8° C. A sterile cotton swab was used to dip the bacterial solution and ti evenly coat the surface of the LB plate 3 times. After inoculation of the bacterial suspension, the LB plate was dried at room temperature for 3 min to 5 min. Sterile forceps were used to closely attach the antibacterial drug paper to the dish. The dish was put upside down and placed in a 37° C. incubator for 24 h. The results were observed by measuring the diameter. Taking 0.5% DMSO solution as a negative control, the antibacterial activity is expressed by the diameter of the inhibition zone. The inhibition zone≥17 mm, sensitive; the inhibition zone of 15 mm-16 mm, intermediary; the inhibition zone≤14 mm, drug resistance.

[2] = test system: multi-resistant Staphylococcus aureus 575 (MRSA-575); experiment: Paper diffusion method drug sensitivity test, MRSA-575; format: cell-based; details: for Zone of inhibition: MRSA-575, 30 μg/tablet paper disc 6.35 mm, LB plate, 37° C., 24 h, ≥17 mm sensitive, 15-16 mm intermediary, ≤14 mm drug resistance
Experimental: as §1, §2, §3, §4, §5, §6

drug-resistant bacteria = experiment: Paper diffusion method drug sensitivity test, overall statement on drug-resistant bacteria; format: cell-based, Staphylococcus aureus; details: drug-resistant bacteria in general (strains of Table 1); 30 μg/tablet
Experimental: as §1, §2, §3, §4, §5
as §6, with “Taking 0.5% DMSO solution as a negative control, the antibacterial activity is expressed by the diameter of the inhibition zone. The inhibition zone≥17 mm, sensitive; the inhibition zone of 15 mm-16 mm, intermediary; the inhibition zone≤14 mm, drug resistance.” left out

MRSA-171 = experiment: Paper diffusion method drug sensitivity test, MRSA-171; format: cell-based, Staphylococcus aureus; details: for Zone of inhibition: MRSA-171, 30 μg/tablet paper disc 6.35 mm, LB plate, 37° C., 24 h, ≥17 mm sensitive, 15-16 mm intermediary, ≤14 mm drug resistance

SMILES	Zone of inhibition [1]	Zone of inhibition [2]	inhibitory effect on drug-resistant bacteria (in words) (drug-resistant bacteria)	Zone of inhibition (MRSA-171)	inhibitory effect (in words) ([1]; multi-drug resistant Staphylococcus aureus 596, 30 μg/tablet)	inhibitory effect (in words) ([2]; multi-drug resistant Staphylococcus aureus 575, 30 μg/tablet)	inhibitory effect (in words) (MRSA-171; multi-drug resistant Staphylococcus aureus 171, 30 μg/tablet)
O=C(O)c1ccccc1O [Salicylic acid]	0 mm	0 mm	no inhibitory effect	0 mm	–	–	–
C=C[C@]1(C)C[C@@H](OC(=O)COC(=O)c2ccccc2O)[C@]2(C)[C@H](C)CC[C@]3(CCC(=O)[C@H]32)[C@@H](C)[C@@H]1O	26 mm	10 mm	excellent antibacterial activity and anti-drug-resistant bacteria activity	16 mm	strong inhibitory effects	strong inhibitory effects	strong inhibitory effects
C=C[C@]1(C)C[C@@H](OC(=O)CO)[C@]2(C)[C@H](C)CC[C@]3(CCC(=O)[C@H]32)[C@@H](C)[C@@H]1O [Pleuromulin]	0 mm	0 mm	no inhibitory effect	0 mm	–	–	–
CN[C@H](CC(C)C)C(=O)N[C@H]1C(=O)N[C@@H](CC(N)=O)C(=O)N[C@H]2C(=O)N[C@H]3C(=O)N[C@H](C(=O)N[C@H](C(=O)O)c4cc(O)cc(O)c4-c4cc3ccc4O)[C@H](O)c3ccc(c(Cl)c3)Oc3cc2cc(c3O[C@@H]2O[C@H](CO)[C@@H](O)[C@H](O)[C@H]2O[C@H]2C[C@](C)(N)[C@H](O)[C@H](C)O2)Oc2ccc(cc2Cl)[C@H]1O [Vancomycin, vancomycin]	23 mm	17 mm	–	15 mm	–	–	–
